Test results as given in article PMC5342526, “Identification of Bisindolylmaleimide IX as a potential agent to treat drug-resistant BCR-ABL positive leukemia” (Oncotarget, 2016).
Where two headings read alike, the source gives them in different places.

Tests used:
p53 in primary MEFs = experiment: p53 protein level by western blot (screen)
Procedure: Cells were lysed in TNEN buffer (50 mM Tris, 150 mM NaCl, 5 mM EDTA, 0.5% NP-40, and 0.1% Triton X-100) supplemented with 1 mM NaF, Na2VO3, 1 mM PMSF, and 1 μg/ml of aprotonin, leupeptin, and pepstatin A. Protein concentrations were determined using a Bio-Rad assay. Proteins were resolved by SDS-PAGE and transferred to polyvinylidene difluoride membranes (Millipore).

[1] = tested on: tumors derived from HCT116; experiment: HCT116 carcinoma xenograft in nude mice; type: in vivo, mouse; details: 2.5mg/kg for 7 days
Procedure: Male BALB/cASlac-nude mice (4-week-old) were purchased from Shanghai Slac Laboratory Animal C. LTD. The mice were kept in the SPF mouse facility for 1 week before being inoculated with HCT116 cells. HCT116 cells were harvested by trypsinization, counted and resuspended in PBS at the concentration of 5×10^7/ml. We injected subcutaneously 3×10^6 cells to BALB/cASlac nude mice's back. After 2 weeks, the mice were divided into 3 groups (6 mice per group) and were treated with 5-Iodotubercidin (Itu), Bisindolylmaleimide IX or solvent (PBS). The mice were weighed and the size of tumor measured. The length (L) and width (W) of the tumor were measured with a digital caliper and expressed as tumor volume (0.5L×W^2, mm^3).

γH2AX foci in MEFs = experiment: γH2AX DNA damage foci, immunofluorescent staining; type: cell-based, mouse; details: 2.5 μM, 4 hrs
Procedure: MEFs or HCT116 cells were cultured on cover slips while Baf3 cells were cultured on slides coated by 0.1mg/ml poly-L-lysine, washed with phosphate-buffered saline (PBS) twice, and then fixed in 4% paraformaldehyde (PFA), which were permeabilized with 0.1% Triton X in PBS for 30 minutes at room temperature. The primary antibodies were diluted in PBS with 1% BSA (1:200). The slides were blocked (1% BSA in PBS) for 60 minutes at room temperature, incubated with primary antibodies overnight at 4°C, and followed by secondary antibody incubation for 60 min at RT. The slides were then mounted and observed under confocal microscope (Leica, Germany). Antibodies against γH2AX were from Bethyl Corporation.

K562 cells = experiment: Wst-1 cell survival assay; details: K562, Wst-1
Procedure: We then evaluated the cytotoxic effect of Bisindolylmaleimide IX in MEFs and HCT116 cells. Different doses of Bisindolylmaleimide IX were applied to the cell cultures and cell survival rates and IC50 were determined with Wst-1 assay.
To measure cell survival rates after Bisindolylmaleimide IX treatment, cells were plated at 1×10^4 in 96 well plates and cultured for overnight, which were then treated with Bisindolylmaleimide IX for 48 hrs. Cell proliferation reagent WST-1 (Roche) was added to each well and was further incubated for 4 hrs at 37°C. The absorbance was measured against a control using microplate reader at 440 nm. The reference wavelength was 630 nm.

[2] = tested on: K562, HL-60, MCF7, U251, AGS, MGC-803, U2OS and Saos-2 cells; type: cell-based
Description: The reference wavelength was 630 nm.
www.impactjournals.com/oncotarget/ Oncotarget, Supplementary Materials 2016 […]

[3] = tested on: B-Raf in BCR-ABL positive BaF3 cells; experiment: B-Raf phosphorylation, western blot; type: cell-based, murine
Procedure: Activation and expression of Erk, Mek1, and Raf were determined by western blot. B. Inhibition of Erk decreased the cell survival rates in BaF3 cells expressing BCR-ABL compared to control cells. […] C. […] N=3. Right panel: Western blot results showing that B-Raf was knocked down in these cells.

Q: Which p53 protein up-regulation (p53 in primary MEFs) does the source give for `Nc1ncnc2c1c(I)cn2[C@@H]1O[C@H](CO)[C@@H](O)[C@H]1O` [5-Iodotubercidin] here?
A: up-regulate p53 at the protein levels

Q: What about the tumor growth [1] of the same molecule?
A: greatly inhibited tumor growth

Q: `CCCCCCCCCCCCC/C=C/[C@@H](O)[C@@H](N)CO` [Sphingosine] was tested. Which p53 protein up-regulation (p53 in primary MEFs) did it give?
A: failed to up-regulate p53 in MEFs

Q: For `COCc1cc(O)c(O)c(O)c1-c1c(COC)cc(O)c(O)c1O` [HBDDE], which p53 protein up-regulation (p53 in primary MEFs) is on record?
A: failed to up-regulate p53 in MEFs

Q: With `CN(C)CCCn1cc(C2=C(c3c[nH]c4ccccc34)C(=O)NC2=O)c2ccccc21` [Bisindolylmaleimide I] as the molecule, how does the γH2AX foci formation (γH2AX foci in MEFs) read?
A: minimal numbers of foci

Q: And the p53 protein up-regulation (p53 in primary MEFs)?
A: failed to up-regulate p53 in MEFs

Q: Which p53 protein up-regulation (p53 in primary MEFs) does the source give for `CC(=O)c1c(O)c(C)c(O)c(Cc2c(O)c3c(c(C(=O)/C=C/c4ccccc4)c2O)OC(C)(C)C=C3)c1O` [Rottlerin] here?
A: failed to up-regulate p53 in MEFs

Q: For `Cn1cc(C2=C(c3cn(C4CCN(Cc5ccccn5)CC4)c4ccccc34)C(=O)NC2=O)c2ccccc21` [Enzastaurin], which “cytotoxic effect (in words)” value (BCR-ABL BaF3 cells; BCR-ABL BaF3, 24 hrs, compared among bisindolylmaleimide derivatives) is on record?
A: modest cytotoxic effect

Q: What about the “cytotoxicity (in words)” value (K562 cells) of the same molecule?
A: modest cytotoxic effect

Q: And the γH2AX foci formation (γH2AX foci in MEFs)?
A: minimal numbers of foci

Q: For `Cc1ccc(NC(=O)c2ccc(CN3CCN(C)CC3)cc2)cc1Nc1nccc(-c2cccnc2)n1` [Imatinib], which “cytotoxic effects across cell lines (in words)” value [2] is on record?
A: specificity to BCR-ABL positive cells

Q: How did the “phosphorylation of B-Raf” value [3] turn out when `COc1cccc2c1C(=O)c1c(O)c3c(c(O)c1C2=O)C[C@@](O)(C(=O)CO)C[C@@H]3O[C@H]1C[C@H](N)[C@H](O)[C@H](C)O1` [doxorubicin] was run?
A: did not affect the phosphorylation of B-Raf

Q: How did the p53 protein up-regulation (p53 in primary MEFs) turn out when `Cc1cc(O)c2c(=O)c3c(O)cc(O)c4c5c(O)cc(O)c6c(=O)c7c(O)cc(C)c8c1c2c(c34)c(c78)c65` [Hypericin] was run?
A: failed to up-regulate p53 in MEFs

Q: Which “survival of BCR-ABL positive BaF3 cells compared with control cells” value (BCR-ABL BaF3 cells; 24 hrs, Wst-1) does the source give for `COc1cc([C@@H]2c3cc4c(cc3[C@@H](O[C@@H]3O[C@@H]5CO[C@@H](c6cccs6)O[C@H]5[C@H](O)[C@H]3O)[C@H]3COC(=O)[C@H]23)OCO4)cc(OC)c1O` [teniposide] here?
A: increased survival

Q: And the “phosphorylation of B-Raf” value [3]?
A: did not affect the phosphorylation of B-Raf

Q: With `CCCCCCCCCCCCCCCC(=O)OC(CC(=O)O)C[N+](C)(C)C.[Cl-]` (racemic) [Palmitoyl-DL-carnitine Cl] as the molecule, how does the p53 protein up-regulation (p53 in primary MEFs) read?
A: failed to up-regulate p53 in MEFs

Q: How did the p53 protein up-regulation (p53 in primary MEFs) turn out when `CC1CNCCN1S(=O)(=O)c1cccc2cnccc12` (stereo not drawn) [H-7] was run?
A: failed to up-regulate p53 in MEFs

Q: Which “cell death rates in BCR-ABL expressing BaF3 cells versus control cells” value (BCR-ABL BaF3 cells; inhibition of Erk) does the source give for `N#CC(=C(/N)Sc1ccccc1N)/C(C#N)=C(/N)Sc1ccccc1N` [U0126] here?
A: increased cell death rates

Q: With `NCCNS(=O)(=O)c1cccc2cnccc12` [H-9] as the molecule, how does the p53 protein up-regulation (p53 in primary MEFs) read?
A: failed to up-regulate p53 in MEFs

Q: For `CN[C@@H]1C[C@H]2O[C@@](C)([C@@H]1OC)n1c3ccccc3c3c4c(c5c6ccccc6n2c5c31)C(=O)NC4` [staurosporine], which “cytotoxic effects across cell lines (in words)” value ([2]; 24 hrs, Wst-1) is on record?
A: strong cytotoxic effects in almost all these cell lines

Q: And the p53 protein up-regulation (p53 in primary MEFs)?
A: failed to up-regulate p53 in MEFs
